Measured values taken from patent publication US20260014132A1, “PROTEASE ACTIVATED RECEPTOR 2 (PAR2) INHIBITOR AND ITS USES” (UNIVERSITÀ DEGLI STUDI DI PADOVA, priority 2022, published 2026).

What was measured:
PAR2 [1] = assay: PAR2 mRNA expression (qPCR) in HepG2 cells transiently transfected to overexpress PAR2; format: cell-based, human
Experimental: (§1) In order to evaluate the effect of 1-Piperidin Propionic acid on the transcriptional activity of the membrane receptor Protease Activated Receptor-2 (PAR2), monocyte-derived cell line THP-1 was used. The cells were incubated with LPS, known to induce PAR2 expression in this cell compartment, at a concentration of 1 ng/ml, or with medium alone, as a control, for 2 hours with 1-PPA at a concentration of 1 ng/ml and 100 ng/ml. In further experiments transfected HepG2 cells were used transiently with plasmid containing the human PAR2 sequence by Lipofectamy. These cells were incubated with medium alone, as a control, or with increasing concentrations of 1-PPA, as described above. Cell extracts from both lines were then subjected to extraction of cellular RNA which was reverse transcribed into cDNA and amplified by qPCR.
(§2) Similar results were also obtained in transfected HepG2 cells transiently to overexpress PAR2.

[2] = In vivo organ damage (liver, kidney) after 26 weeks of 1-PPA; set-up: species or system CC57/BL6 mice; settings: 0.07 and 0.7 μg/g/week, normal diet, serum
Experimental: The organ damage of the 1-PPA compound in vivo was also evaluated, considering the function of the liver and kidney, the main organs responsible for pharmacological catabolismln detail, the study included 2 groups of CC57/BL6 mice (4 mice/group, age 45 days), inoculated with 1-PPA at concentrations of 0.07 and 0.7 μg/g/week), for a time period of 26 weeks. All animals were fed a normal diet throughout the study. Before starting the 1-PPA inoculation, a basal blood sample was taken from all animals and a second sample was taken from the sacrifice.
At serum level, alanine aminotransferase (ALT) as an indicator of hepatic cytolytic damage, bilirubin as an indicator of hepatic cholestasis, blood urea nitrogen (Blood urea nitrogen, BUN) as an indicator of renal damage were evaluated. The results were expressed as the ratio between the value of the final sampling and that of the basal sampling.

PAR2 [3] = assay: PAR2 mRNA expression (qPCR) in LPS-stimulated THP-1 cells; format: cell-based, human
Experimental: as §1, §2

LPS-induced sepsis = assay: LPS-induced systemic sepsis model in mice; format: in vivo, C57BL/6 J mice; settings: LPS about 10 mg/kg intraperitoneal
Experimental: In vivo experiments are underway on models of systemic sepsis, in order to validate the protective effect of 1-PPA against the development of cytokine storm and septic shock with multiple organ failure, using C57BL/6 J mice. The first part of the study consists in the induction of sepsis through LPS and experimental treatment with 1-PPA.
The intraperitoneal administration with LPS (about 10 mg/kg, L4130, Sigma-Aldrich) associated with 1-PPA or alternatively with PBS, was carried out under anesthesia (Sevorane at 4% in medical oxygen) through the use of Fluovac (Harvard Instruments), dedicated for the anesthesia of small animals.
The time interval of 8 hours is considered the optimal interval for observing the onset of scientifically quantifiable sepsis in mice, and for evaluating the efficacy of a treatment aimed at inhibiting it by administering 1-PPA.
FIG. 6A illustrates the experimental design and the quantification of the degree of malaise using a score commonly used to determine the condition of the animal, where 0 refers to the normal condition and 5 refers to a pre-terminal condition. A score of 6 was attributed to the death of the animal.

gouty arthritis = assay: Mouse model of gouty arthritis (uric acid microcrystals in hind paw); format: in vivo, mice (C57BL6J)
Source text: To evaluate the inhibitory capacity of 1-PPA in pain perception, notoriously mediated by PAR2 as a receptor of peripheral nerve endings (Andrea S. Rothmeier & Wolfram Ruf. Semin Immunopathol, 2012; 34:133-149), an experimental model of inflammatory arthritis was used. In particular, a mouse model of gout was used by injecting microcrystals of uric acid subcutaneously into the plantar surface of the hind legs of mice (C57BL6J), followed by injection of 1-PPA at different concentrations in one hind leg, using the contralateral leg as a control. After a few hours, the microcrystal treatment induces swelling and edema at the injection site which reaches a peak of inflammation and pain at 48 hours and then resolves spontaneously.
To evaluate the intensity of pain, the electronic von Frey test was used, which involves recording the intensity of the stimulus that evokes a withdrawal reflex, after the application of the pain stimulus to the plantar surface of the hind leg.

PAR2 [4] = assay: Cellular Thermal Shift Assay (CETSA) and Western blot in lysates of HepG2 cells overexpressing PAR2; format: binding, human; settings: soluble fraction of extracts of HepG2 overexpressing PAR2, progressive increase in temperature
Source text: These interaction data between 1-PPA and PAR2 were also confirmed at the protein level, using the cellular thermal shift assay (CETSA) (Science 341 (6141): 84-87). This is a biophysical assay based on the principle of ligand-induced thermal stabilization of target proteins, as the melting temperature of proteins changes according to the interaction of the ligand.
This conformation was identified as level class 0, which is the highest scoring and most reliable analysis. […] In particular, HepG2 cells have been genetically modified to overexpress transiently PAR 2 using cDNA as expression plasmid 3.1. The soluble fraction of the cell extracts was then subjected to the CETSA test, in the presence or absence of 1-PPA, according to the protocol. The samples were also studied by Wester blot using an anti HA-tag PAR 2 monoclonal antibody.

platelet aggregation = assay: Platelet aggregation, TRAP test, Multiplate analyzer, whole blood; format: cell-based; settings: TRAP-6, increasing concentrations of 1-PPA
Source text: The analysis of platelet function can be performed by the Multiplate® analyzer (Roche Diagnostics) which is a method based on impedance aggregometry and can be used to measure platelet function in whole blood in the presence or absence of inhibitors. In particular the TRAP test is an assay for the in vitro quantitative determination of platelet function triggered by thrombin receptor activating peptide-6 (TRAP-6) which is a potent platelet activator and stimulates platelet aggregation through the thrombin receptor PAR-1, this peptide has also been found capable of activating PAR2 (Cas #AS-24190-25, CliniScience), which can be activated by thrombin in the presence of thrombomodulin (Heuberger et al, Thrombosis Research 2019, 177:91-101).
Multiplate® Analyzer, Roche Diagnostics) was used, where the blood sample was analyzed alone or in presence of increasing concentrations of 1-PPA.

HepG2 cell line = assay: In vitro toxicity, real-time cell proliferation (XCelligence) in HepG2; format: cell-based
Source text: Real-time cell proliferation was monitored using the XCelligence tool (ACEA) and the results were expressed as Cell Index, which expresses the cell number at each point considered.

TNF-α = assay: LPS-induced TNF-α transcriptional expression in THP-1 cells (RT-PCR); format: cell-based, human
Experimental: (§3) Given that PAR2 is deeply implicated in the induction of proinflammatory cytokines, the ability of PPA in the inhibition of proinflammatory cytokines in a context simulating bacterial sepsis was evaluated. In FIGS. 3A and 3B the THP-1 cell line of monocytic origin was used, incubated with LPS ([…]), which in example 1 had induced an increase in the synthesis of endogenous PAR2. Cells were simultaneously treated with 1-PPA at a concentration of 1 ng/ml or 100 ng/ml or medium alone as control and incubated for 1 or 4 hours. The cell extracts were used to analyze the transcriptional expression of the cytokines TNF-α and IL-1β by RT-PCR.

IL-1β = assay: LPS-induced IL-1β transcriptional expression in THP-1 cells (RT-PCR); format: cell-based, human
Experimental: as §3

chronic kidney disease = assay: CKD induced by folic acid and treatment with 1-PPA; format: in vivo, mouse; settings: FA 125 mg/kg i.p., 1-PPA i.p. 0.1 μg/g from third day, thirtieth day, expected
Experimental: A single intraperitoneal injection of FA (dosage of 125 mg/kg) induces renal damage which reproduces the analogous syndrome in man after 30 days. To ensure maximum precision and least distress for the animal, the 1-PPA inoculation is performed by anesthetizing the mouse for a few minutes using deep inhalation surgical anesthesia using 4% Sevorane in medical oxygen administered through a Fluovac device (Harvard Instruments) specifically dedicated to the anesthesia of laboratory rodents.
Treatment with 1-PPA (i.p. injection at a concentration of 0.1 μg/g of body weight) begins from the third day after the induction of renal damage (groups FA+1-PPA). Control groups are treated with PBS (FA+PBS groups).
Renal function is monitored weekly by semiquantitative evaluation of proteinuria using multistix (Siemens). For urine collection, the […] is placed in a carefully cleaned plexiglass tray, in the presence of dedicated environmental enrichment. After 30 days from the induction of the renal damage the animals are sacrificed by cervical dislocation or excess anesthesia. Peripheral blood is collected by intracardiac puncture, and kidneys and liver are sampled in formalin and at −80° C. for subsequent evaluations of IHC and gene expression. […]

[5] = THP-1, 1-PPA 1 ng/ml or 100 ng/ml, 1 or 4 hours

O=C(O)CCN1CCCCC1 [1-PPA, 1-Piperidine Propionic Acid]
concentration capable of inhibiting the synthesis of PAR2 (PAR2 [1]; HepG2 line, PAR2 overexpression conditions): 1 ng/mL
PAR2 mRNA expression (PAR2 [1]; HepG2 transiently transfected with human PAR2 plasmid, increasing concentrations of 1-PPA): effective inhibition of PAR2 mRNA
alanine aminotransferase (ALT), ratio final/basal sampling [2]: < 2 ×normal values
bilirubin, ratio final/basal sampling [2]: < 2 ×normal values
blood urea nitrogen (BUN), ratio final/basal sampling [2]: < 2 ×normal values
PAR2 mRNA expression (PAR2 [3]; THP-1 cells, LPS 1 ng/ml, 2 hours, 1-PPA 1 ng/ml and 100 ng/ml): marked reduction of its expression
concentration capable of inhibiting the synthesis of PAR2 (PAR2 [3]; THP-1 line, PAR2 overexpression conditions): 1 ng/mL
degree of malaise score (0 normal, 5 pre-terminal, 6 death) (LPS-induced sepsis; 1-PPA 3 μg, maximum reached): ≤ 2
protection from LPS-induced sepsis (LPS-induced sepsis; low concentrations of 1-PPA): protected mice from LPS-induced sepsis
stimulus to induce the withdrawal reflex (electronic von Frey test) (gouty arthritis; compared to mice injected only with microcrystals): significantly greater stimulus
paw edema and redness (confirmed by paw circumference) (gouty arthritis; urate microcrystals subcutaneously in plantar surface, 1-PPA injected in hind leg, versus not treated): visually less edematous and reddened
thermal stabilization of PAR2 protein (CETSA) (PAR2 [4]): thermal stability of the PAR2 protein
platelet aggregation (platelet aggregation): inhibiting platelet aggregation in a dose-dependent manner
non-toxic concentration relative to biologically effective dose (HepG2 cell line; 5 μg/ml versus biologically effective dose): at least 50 times
cellular toxic effect (Cell Index) (HepG2 cell line; HepG2, 5 μg/ml): did not demonstrate a cellular toxic effect
TNF-α transcriptional expression induced by LPS (TNF-α; [5]): effectively blocked
concentration at which inhibitory effect is achieved (TNF-α; THP-1, LPS): 1 ng/mL
IL-1β transcriptional expression induced by LPS (IL-1β; [5]): effectively blocked
concentration at which inhibitory effect is achieved (IL-1β; THP-1, LPS): 1 ng/mL
control of IL-1β synthesis over time (IL-1β; lowest 1-PPA concentration (1 ng/ml), persisting LPS induction): still more effective in controlling the synthesis
mean value of proteinuria measured in the urine (chronic kidney disease): moderate residual damage
